Test results reported in US20260206761A1, “HETEROARYL-TRIAZOLE COMPOUNDS AS PESTICIDES” (Bayer Aktiengesellschaft, priority 2019, published 2026).

Assays:
Assay type in all cases: in vivo
[1] = tested on: Rhipicephalus microplus larvae (strain Parkhurst, resistant against synthetic pyrethroids); experiment: Rhipicephalus (Boophilus) microplus in-vitro contact test, larval cattle tick; details: after 48 hours, read-out: activity (efficacy: larvae dead or moribund); for pest or weed control at 100 g/ha: application rate 1 pg/cm^2 (=100 g/ha); for pest or weed control at 500 g/ha: application rate 5 pg/cm^2 (=500 g/ha)
In short: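 Acetone solutions coated onto inner walls of glass tubes by rotation (900 ppm giving 5 μg/cm^2); after evaporation, 20-50 larvae added per tube and held at 27° C., 85% relative humidity. Efficacy read after 48 h from negative geotactic behaviour; 100% = all larvae dead or moribund.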

[2] = tested on: adult cat fleas (Ctenocephalides felis); experiment: Ctenocephalides felis in-vitro contact test, adult cat flea; details: application rate 5 μg/cm^2 (=500 g/ha), after 48 hours, read-out: activity (efficacy: fleas dead or moribund)
In short: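 Acetone solutions of compound coated onto inner walls of glass tubes (900 ppm giving […]); after drying, 5-10 adult Ctenocephalides felis added and held at room temperature. At 48 h, fleas placed on a 45-50° C heating plate; those unable to climb away scored dead or moribund, expressed as % efficacy.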

[3] = tested on: larvae of the banded cucumber beetle (Diabrotica balteata); experiment: Diabrotica balteata spray test; details: 168 h, after 7 days, read-out: activity (efficacy: seedlings grown); for pest or weed control at 100 g/ha: application rate 100 g/ha (=32 pg/well); for pest or weed control at 500 g/ha: application rate 500 g/ha (=160 pg/well)
In short: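 Wheat seedlings, germinated 1 day on agar (5 seeds/well), sprayed with active compound in acetone/DMF diluted in water containing 1000 ppm emulsifier, then infested with 10-20 D. balteata larvae. Efficacy (%) scored after 7 days: 100% = seedlings grown as untreated uninfested control, 0% = no seedlings grown.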

[4] = tested on: green peach aphid (Myzus persicae); experiment: Myzus persicae spray test; details: 120 h, after 5 days; for mortality at 100 g/ha: application rate 100 g/ha; for mortality at 500 g/ha: application rate 500 g/ha
In short: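 Chinese cabbage leaf disks carrying all instars of M. persicae sprayed with compound in acetone/DMF, diluted in water with 1000 ppm alkylarylpolyglycol ether emulsifier. Percent mortality scored after 5 days (100% = all aphids killed).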

[5] = tested on: Aedes aegypti strain MONHEIM; experiment: Aedes aegypti test (AEDSAE surface treatment & contact assay); details: 24 hours after contact, read-out: efficacy (mortality); for mortality at 4 mg/m2: surface concentration 4 mg/m^2, exposure 30 minutes; for mortality at 20 mg/m2: surface concentration 20 mg/m^2, exposure 30 minutes
In short: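 Compound in acetone (2 mg/ml) with 2000 ppm RME pipetted onto glazed tile and dried; adult Aedes aegypti MONHEIM exposed 30 min. Percent mortality scored 24 h after contact.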

[6] = tested on: Musca domestica strain WHO-N; experiment: Musca domestica test (MUSCDO surface treatment & contact assay); details: 24 hours after contact, read-out: efficacy (mortality); for mortality at 20 mg/m2: surface concentration 20 mg/m^2, exposure 30 minutes; for mortality at 4 mg/m2: surface concentration 4 mg/m^2, exposure 30 minutes
In short: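 Compound dissolved at 2 mg/ml in acetone with 2000 ppm rapeseed oil methyl ester and pipetted onto a glazed tile. After the acetone evaporated, adult WHO-N flies were exposed to the dried surface for 30 min, with % mortality scored 24 h after contact.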

[7] = tested on: green peach aphid (Myzus persicae); experiment: Myzus persicae oral test; details: 120 h, application rate 4 ppm, after 5 days
In short: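 Acetone stock (1 pbw compound/100 pbw solvent) diluted in water; mixed with sugar-supplemented IPL41 medium; parafilm-sealed; mixed aphid population sucks through film; mortality % read at 5 d.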

[8] = tested on: larvae of the southern green stink bug (Nezara viridula); experiment: Nezara viridula spray test; details: 96 h, after 4 days; for mortality at 100 g/ha: application rate 100 g/ha; for mortality at 500 g/ha: application rate 500 g/ha
In short: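 Compound in acetone/dimethylformamide, diluted in water with 1000 ppm alkylarylpolyglycol ether emulsifier, sprayed onto barley plants carrying stink bug larvae. Mortality (%) scored after 4 days, 100% meaning all insects killed.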

| SMILES | pest or weed control at 100 g/ha [1] [%] | pest or weed control at 500 g/ha [1] [%] | pest or weed control at 5 µg/cm2 [2] [%] | pest or weed control at 100 g/ha [3] [%] | mortality at 100 g/ha [4] [%] | mortality at 4 mg/m2 [5] [%] | mortality at 20 mg/m2 [5] [%] | mortality at 20 mg/m2 [6] [%] | mortality at 4 ppm [7] [%] | mortality at 100 g/ha [8] [%] | mortality at 4 mg/m2 [6] [%] | pest or weed control at 500 g/ha [3] [%] | mortality at 500 g/ha [4] [%] | mortality at 500 g/ha [8] [%] |
| --- | --- | --- | --- | --- | --- | --- | --- | --- | --- | --- | --- | --- | --- | --- |
| CC(C)c1nc([C@H](C)NC(=O)c2cc(OC(F)(F)F)cc(C3CC3)c2)n(-c2ccc(C#N)cn2)n1 [I-23] | 100 | 100 | 100 | 80 | 90 | 80 to 100 | 80 to 100 | 80 to 100 | – | – | – | – | – | – |
| C[C@H](NC(=O)c1cc(Cl)cc(S(=O)(=O)C2CC2)c1)c1nc(C2CC2)nn1-c1ncc(Cl)cn1 [I-25] | 100 | 100 | 100 | 100 | 100 | 80 to 100 | 80 to 100 | 80 to 100 | 100 | 100 | 80 to 100 | – | – | – |
| CC(NC(=O)c1cc(C(F)(F)F)cc(S(C)(=O)=O)c1)c1nc(Cl)nn1-c1ncccn1 (stereo not shown) [I-30] | 100 | 100 | 100 | 100 | 90 | 80 to 100 | 80 to 100 | 80 to 100 | 100 | 100 | – | – | – | – |
| C[C@H](NC(=O)c1cc(C(F)(F)F)cc(S(C)(=O)=O)c1)c1ncnn1-c1ncccn1 [II-13] | – | 80 | 100 | 100 | 90 | 80 to 100 | 80 to 100 | – | 100 | 100 | 80 to 100 | 100 | 100 | 100 |
| C[C@H](NC(=O)c1cc(Cl)cc([S+]([O-])C(F)F)c1)c1ncnn1-c1ccc(C#N)cn1 (stereo partly drawn) [II-18, 3-chloro-N-{(1S)-1-[1-(5-cyanopyridin-2-yl)-1H-1,2,4-triazol-5-yl]ethyl}-5-[(difluoro-methyl)sulfinyl]benzamide] | 100 | 100 | 100 | 100 | – | 80 to 100 | 80 to 100 | 80 to 100 | 100 | 100 | – | 100 | – | 100 |
| C[C@H](NC(=O)c1cc(OC(F)(F)F)cc(C2CC2)c1)c1ncnn1-c1ccccn1 [II-22] | 100 | 100 | 100 | 100 | – | 80 to 100 | 80 to 100 | 80 to 100 | 100 | – | 80 to 100 | 100 | 90 | 100 |
| C[C@H](NC(=O)c1cc(OC(F)(F)F)cc(C2CC2)c1)c1ncnn1-c1ccc(Cl)cn1 [II-23] | 100 | 100 | 100 | 100 | 100 | 80 to 100 | 80 to 100 | 80 to 100 | – | 100 | 80 to 100 | 100 | 100 | 100 |
| Cc1nc([C@H](C)NC(=O)c2cc(C(F)(F)F)n(C)n2)n(-c2ncccn2)n1 [II-25] | 100 | 100 | 100 | – | – | 80 to 100 | 80 to 100 | 80 to 100 | – | 100 | 80 to 100 | 100 | 90 | 100 |
| C[C@H](NC(=O)c1cc(C2CC2)cc(C(F)(F)F)c1)c1ncnn1-c1ccc(C#N)cn1 [II-26] | 100 | 100 | 90 | 100 | 90 | 80 to 100 | 80 to 100 | 80 to 100 | 100 | 100 | 80 to 100 | 100 | 100 | 100 |
| Cc1nc([C@H](C)NC(=O)c2cc(Cl)cc(C3(C#N)CC3)c2)n(-c2ccc(C#N)cn2)n1 [II-38] | 100 | 100 | 100 | 100 | 90 | 80 to 100 | – | 80 to 100 | 100 | – | 80 to 100 | – | – | – |
| Cc1nc([C@H](C)NC(=O)c2cc(OC(F)(F)F)cc(C3CC3)c2)n(-c2ccc(C#N)cn2)n1 [II-39] | 100 | 100 | 100 | 100 | – | 80 to 100 | 80 to 100 | 80 to 100 | 100 | – | 80 to 100 | – | – | – |
| Cc1nc([C@H](C)NC(=O)c2cc(C(F)(F)F)cc(S(C)(=O)=O)c2)n(-c2ccc(C#N)cn2)n1 [II-52] | 100 | 100 | 100 | 100 | 90 | 80 to 100 | 80 to 100 | 80 to 100 | – | 100 | 80 to 100 | – | – | – |
